Laboratory results: the Kinase Knowledgebase extract (Sharma et al. 2016)

Columns and labels:
EGFR = EGFR (UniProt P00533)
EGFR (Balb/c mice) [1] = target: EGFR (Balb/c mice) (UniProt P00533); conditions: balb/c3t3
EGFR (Balb/c mice) [2] = target: EGFR (Balb/c mice) (UniProt P00533); conditions: balb/mk cells
EGFR (human) = EGFR (human) (UniProt P00533); conditions: a431
EGFR (human), sequence (P00533 whole entry, looked up): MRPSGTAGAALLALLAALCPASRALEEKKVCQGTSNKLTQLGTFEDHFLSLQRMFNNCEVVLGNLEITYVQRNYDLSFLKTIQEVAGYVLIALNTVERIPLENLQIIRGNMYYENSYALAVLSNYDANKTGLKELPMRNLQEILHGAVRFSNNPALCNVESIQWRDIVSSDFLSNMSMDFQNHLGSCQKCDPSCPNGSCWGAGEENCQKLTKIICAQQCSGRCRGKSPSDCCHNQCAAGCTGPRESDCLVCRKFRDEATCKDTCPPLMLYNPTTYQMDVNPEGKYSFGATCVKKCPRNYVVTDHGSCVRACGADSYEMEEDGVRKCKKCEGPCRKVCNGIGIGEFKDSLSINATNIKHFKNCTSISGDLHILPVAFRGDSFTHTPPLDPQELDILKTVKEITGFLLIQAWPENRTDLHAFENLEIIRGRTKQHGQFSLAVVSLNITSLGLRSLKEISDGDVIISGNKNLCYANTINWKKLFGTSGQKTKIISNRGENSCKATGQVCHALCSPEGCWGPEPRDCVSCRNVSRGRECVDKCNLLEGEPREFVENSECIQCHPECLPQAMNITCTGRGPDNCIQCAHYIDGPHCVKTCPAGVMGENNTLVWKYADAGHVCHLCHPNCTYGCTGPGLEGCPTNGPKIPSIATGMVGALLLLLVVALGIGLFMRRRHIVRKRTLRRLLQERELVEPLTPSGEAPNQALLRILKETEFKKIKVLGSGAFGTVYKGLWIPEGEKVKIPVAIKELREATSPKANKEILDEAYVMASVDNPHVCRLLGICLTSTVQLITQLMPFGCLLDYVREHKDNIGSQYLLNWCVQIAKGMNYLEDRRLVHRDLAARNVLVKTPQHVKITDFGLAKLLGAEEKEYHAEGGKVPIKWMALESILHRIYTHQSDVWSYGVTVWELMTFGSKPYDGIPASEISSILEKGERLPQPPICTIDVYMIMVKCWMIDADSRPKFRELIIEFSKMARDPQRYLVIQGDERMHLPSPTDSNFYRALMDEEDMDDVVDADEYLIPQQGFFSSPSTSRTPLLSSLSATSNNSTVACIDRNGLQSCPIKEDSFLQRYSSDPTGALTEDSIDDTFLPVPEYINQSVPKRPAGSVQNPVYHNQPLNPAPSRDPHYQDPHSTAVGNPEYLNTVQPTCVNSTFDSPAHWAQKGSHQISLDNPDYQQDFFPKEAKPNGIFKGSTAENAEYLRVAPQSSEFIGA

EGFR, sequence (P00533 whole entry, looked up): as above

SMILES | IC50 (EGFR) | IC50 (EGFR (Balb/c mice) [1]) | IC50 (EGFR (Balb/c mice) [2]) | IC100 (EGFR (human))
CN1CCN(Cc2cc3c(Nc4cccc(Cl)c4)ncnc3[nH]2)CC1 | 0.5 to 1000 nM | 1 to 100 nM | 100 to 1000 nM | 
CCNC(=S)Nc1ccc(-c2cc3c(Nc4cccc(Cl)c4)ncnc3[nH]2)cc1 | 0.5 to 1000 nM | 1 to 100 nM | 100 to 1000 nM | 
CC(C)OC(=O)Nc1ccc(-c2cc3c(Nc4cccc(Cl)c4)ncnc3[nH]2)cc1 | 0.5 to 1000 nM | 1 to 100 nM | 100 to 1000 nM | 
OCc1ccc(-c2cc3c(Nc4cccc(Cl)c4)ncnc3[nH]2)cc1 | 0.5 to 1000 nM | 1 to 100 nM | 100 to 1000 nM | 
COc1ccc(-c2cc3c(N[C@H](C)c4ccccc4)ncnc3[nH]2)cc1 | 0.5 to 1000 nM | 1 to 100 nM | 100 to 1000 nM | 
O=C(Nc1ccccc1)Nc1cccc(-c2cc3c(Nc4cccc(Cl)c4)ncnc3[nH]2)c1 | 0.5 to 1000 nM | 1 to 100 nM | 100 to 1000 nM | 
COc1cc(-c2cc3c(Nc4ccccc4)ncnc3[nH]2)ccc1O | 0.5 to 1000 nM | 1 to 100 nM | 100 to 1000 nM | 
C[C@@H](Nc1ncnc2[nH]c(-c3ccc(NS(C)(=O)=O)cc3)cc12)c1ccccc1 | 0.5 to 1000 nM | 1 to 100 nM | 100 to 1000 nM | 
Clc1cccc(Nc2ncnc3[nH]c(-c4nccs4)cc23)c1 | 0.5 to 1000 nM | 1 to 100 nM | 100 to 1000 nM | 
CN(C)C=Nc1cccc(-c2cc3c(Nc4cccc(Cl)c4)ncnc3[nH]2)c1 | 0.5 to 1000 nM | 1 to 100 nM | 100 to 1000 nM | 
C[C@@H](Nc1ncnc2[nH]c(-c3cccc(N=CN(C)C)c3)cc12)c1ccccc1 | 0.5 to 1000 nM | 1 to 100 nM | 100 to 1000 nM | 
Clc1cccc(Nc2ncnc3[nH]c(-c4ccc(N=CN5CCOCC5)cc4)cc23)c1 | 0.5 to 1000 nM | 1 to 100 nM | 100 to 1000 nM | 
Cc1nc(-c2cc3c(Nc4cccc(Cl)c4)ncnc3[nH]2)sc1C | 0.5 to 1000 nM | 1 to 100 nM | 100 to 1000 nM | 
Clc1cccc(Nc2ncnc3[nH]c(-c4ccc(NCc5ccccc5)cc4)cc23)c1 | 0.5 to 1000 nM | 1 to 100 nM | 100 to 1000 nM | 
CCS(=O)(=O)Nc1ccc(-c2cc3c(N[C@H](C)c4ccccc4)ncnc3[nH]2)cc1 | 0.5 to 1000 nM | 1 to 100 nM | 100 to 1000 nM | 
NC(=S)c1cc2c(Nc3cccc(Cl)c3)ncnc2[nH]1 | 0.5 to 1000 nM | 1 to 100 nM | 100 to 1000 nM | 
Clc1cccc(Nc2ncnc3[nH]c(CN4CCOCC4)cc23)c1 | 0.5 to 1000 nM | 1 to 100 nM | 100 to 1000 nM | 
CC(C)COC(=O)Nc1ccc(-c2cc3c(Nc4cccc(Cl)c4)ncnc3[nH]2)cc1 | 0.5 to 1000 nM | 1 to 100 nM | 100 to 1000 nM | 
Cn1nnc(-c2cc3c(Nc4cccc(Cl)c4)ncnc3[nH]2)n1.Cn1nnnc1-c1cc2c(Nc3cccc(Cl)c3)ncnc2[nH]1 | 0.5 to 1000 nM | 1 to 100 nM | 100 to 1000 nM | 
Clc1cccc(Nc2ncnc3[nH]c(-c4ccc(N=CN5CCCCC5)cc4)cc23)c1 | 0.5 to 1000 nM | 1 to 100 nM | 100 to 1000 nM | 
COC(=O)Nc1ccc(-c2cc3c(Nc4cccc(Cl)c4)ncnc3[nH]2)cc1 | 0.5 to 1000 nM | 1 to 100 nM | 100 to 1000 nM | 
C[C@@H](Nc1ncnc2[nH]c(-c3cccc(NCc4ccccc4)c3)cc12)c1ccccc1 | 0.5 to 1000 nM | 1 to 100 nM | 100 to 1000 nM | 

SMILES | IC50 (EGFR) | IC50 (EGFR (Balb/c mice) [1]) | IC50 (EGFR (Balb/c mice) [2]) | IC100 (EGFR (human))
Clc1cccc(Nc2ncnc3[nH]c(-c4cccc(N=CN5CCOCC5)c4)cc23)c1 | 0.5 to 1000 nM | 1 to 100 nM | 100 to 1000 nM | 
CCc1csc(-c2cc3c(Nc4cccc(Cl)c4)ncnc3[nH]2)n1 | 0.5 to 1000 nM | 1 to 100 nM | 100 to 1000 nM | 
CCOC(=O)Nc1ccc(-c2cc3c(Nc4cccc(Cl)c4)ncnc3[nH]2)cc1 | 0.5 to 1000 nM | 1 to 100 nM | 100 to 1000 nM | 
COc1cc(-c2cc3c(Nc4cccc(Cl)c4)ncnc3[nH]2)ccc1OCc1ccccc1 | 0.5 to 1000 nM | 1 to 100 nM | 100 to 1000 nM | 
O=C(c1cc2c(Nc3cccc(Cl)c3)ncnc2[nH]1)N1CCOCC1 | 0.5 to 1000 nM | 1 to 100 nM | 100 to 1000 nM | 
CC(C)S(=O)(=O)Nc1ccc(-c2cc3c(Nc4cccc(Cl)c4)ncnc3[nH]2)cc1 | 0.5 to 1000 nM | 1 to 100 nM | 100 to 1000 nM | 
CN1CCN(C(=O)c2cc3c(Nc4cccc(Cl)c4)ncnc3[nH]2)CC1 | 0.5 to 1000 nM | 1 to 100 nM | 100 to 1000 nM | Between 0.001 to 1.000 uM
COc1ccc(CNCc2cc3c(Nc4cccc(Cl)c4)ncnc3[nH]2)cc1 | 0.5 to 1000 nM | 1 to 100 nM | 100 to 1000 nM | 
CC(C)S(=O)(=O)Nc1ccc(-c2cc3c(N[C@H](C)c4ccccc4)ncnc3[nH]2)cc1 | 0.5 to 1000 nM | 1 to 100 nM | 100 to 1000 nM | 
CCS(=O)(=O)Nc1ccc(-c2cc3c(Nc4cccc(Cl)c4)ncnc3[nH]2)cc1 | 0.5 to 1000 nM | 1 to 100 nM | 100 to 1000 nM | 
CCN(C=Nc1ccc(-c2cc3c(Nc4cccc(Cl)c4)ncnc3[nH]2)cc1)CC | 0.5 to 1000 nM | 1 to 100 nM | 100 to 1000 nM | 
CS(=O)(=O)Nc1cccc(-c2cc3c(Nc4cccc(Cl)c4)ncnc3[nH]2)c1 | 0.5 to 1000 nM | 1 to 100 nM | 100 to 1000 nM | 
CON=Cc1cc2c(Nc3cccc(Cl)c3)ncnc2[nH]1 | 0.5 to 1000 nM | 1 to 100 nM | 100 to 1000 nM | 
CS(=O)(=O)Nc1ccc(-c2cc3c(Nc4cccc(Cl)c4)ncnc3[nH]2)cc1 | 0.5 to 1000 nM | 1 to 100 nM | 100 to 1000 nM | 
CNC(=S)Nc1cccc(-c2cc3c(N[C@H](C)c4ccccc4)ncnc3[nH]2)c1 | 0.5 to 1000 nM | 1 to 100 nM | 100 to 1000 nM | 
C[C@@H](Nc1ncnc2[nH]c(-c3cccc(NS(C)(=O)=O)c3)cc12)c1ccccc1 | 0.5 to 1000 nM | 1 to 100 nM | 100 to 1000 nM | 
COc1cc(-c2cc3c(Nc4cccc(Cl)c4)ncnc3[nH]2)ccc1O | 0.5 to 1000 nM | 1 to 100 nM | 100 to 1000 nM | 
O=C(c1ccc(-c2cc3c(Nc4cccc(Cl)c4)ncnc3[nH]2)cc1)N1CCOCC1 | 0.5 to 1000 nM | 1 to 100 nM | 100 to 1000 nM | 
CN1CCN(C=Nc2ccc(-c3cc4c(Nc5cccc(Cl)c5)ncnc4[nH]3)cc2)CC1 | 0.5 to 1000 nM | 1 to 100 nM | 100 to 1000 nM | 
O=C(Nc1ccc(-c2cc3c(Nc4cccc(Cl)c4)ncnc3[nH]2)cc1)c1ccco1 | 0.5 to 1000 nM | 1 to 100 nM | 100 to 1000 nM | 
CCNC(=O)Nc1cccc(-c2cc3c(Nc4cccc(Cl)c4)ncnc3[nH]2)c1 | 0.5 to 1000 nM | 1 to 100 nM | 100 to 1000 nM | 
CCS(=O)(=O)Nc1cccc(-c2cc3c(Nc4cccc(Cl)c4)ncnc3[nH]2)c1 | 0.5 to 1000 nM | 1 to 100 nM | 100 to 1000 nM | 

SMILES | IC50 (EGFR) | IC50 (EGFR (Balb/c mice) [1]) | IC50 (EGFR (Balb/c mice) [2]) | IC100 (EGFR (human))
CCS(=O)(=O)Nc1cccc(-c2cc3c(N[C@H](C)c4ccccc4)ncnc3[nH]2)c1 | 0.5 to 1000 nM | 1 to 100 nM | 100 to 1000 nM | 
COc1cc(-c2cc3c(Nc4cccc(C)c4)ncnc3[nH]2)ccc1O | 0.5 to 1000 nM | 1 to 100 nM | 100 to 1000 nM | 
CCNC(=O)Nc1cccc(-c2cc3c(N[C@H](C)c4ccccc4)ncnc3[nH]2)c1 | 0.5 to 1000 nM | 1 to 100 nM | 100 to 1000 nM | 
CC(C)C(=Nc1ccc(-c2cc3c(Nc4cccc(Cl)c4)ncnc3[nH]2)cc1)N(C)C | 0.5 to 1000 nM | 1 to 100 nM | 100 to 1000 nM | 
CCNC(=O)Nc1ccc(-c2cc3c(Nc4cccc(Cl)c4)ncnc3[nH]2)cc1 | 0.5 to 1000 nM | 1 to 100 nM | 100 to 1000 nM | 
CN1CCN(C(=O)c2ccc(-c3cc4c(Nc5cccc(Cl)c5)ncnc4[nH]3)cc2)CC1 | 0.5 to 1000 nM | 1 to 100 nM | 100 to 1000 nM | 
CNC(=S)Nc1cccc(-c2cc3c(Nc4cccc(Cl)c4)ncnc3[nH]2)c1 | 0.5 to 1000 nM | 1 to 100 nM | 100 to 1000 nM | 
Oc1ccc(CNCc2cc3c(Nc4cccc(Cl)c4)ncnc3[nH]2)cc1 | 0.5 to 1000 nM | 1 to 100 nM | 100 to 1000 nM | 
ON=Cc1cc2c(Nc3cccc(Cl)c3)ncnc2[nH]1 | 0.5 to 1000 nM | 1 to 100 nM | 100 to 1000 nM | 
C[C@@H](Nc1ncnc2[nH]c(-c3ccc(N=CN(C)C)cc3)cc12)c1ccccc1 | 0.5 to 1000 nM | 1 to 100 nM | 100 to 1000 nM | 
O=C(Nc1ccc(-c2cc3c(Nc4cccc(Cl)c4)ncnc3[nH]2)cc1)c1cccs1 | 0.5 to 1000 nM | 1 to 100 nM | 100 to 1000 nM | 
CC(C)S(=O)(=O)Nc1cccc(-c2cc3c(N[C@H](C)c4ccccc4)ncnc3[nH]2)c1 | 0.5 to 1000 nM | 1 to 100 nM | 100 to 1000 nM | 
CCN(C=Nc1cccc(-c2cc3c(Nc4cccc(Cl)c4)ncnc3[nH]2)c1)CC | 0.5 to 1000 nM | 1 to 100 nM | 100 to 1000 nM | 
Clc1cccc(Nc2ncnc3[nH]c(-c4nnn[nH]4)cc23)c1 | 0.5 to 1000 nM | 1 to 100 nM | 100 to 1000 nM | 
O=S(=O)(Nc1ccc(-c2cc3c(Nc4cccc(Cl)c4)ncnc3[nH]2)cc1)c1ccccc1 | 0.5 to 1000 nM | 1 to 100 nM | 100 to 1000 nM | 
OCCN(CCO)Cc1cc2c(Nc3cccc(Cl)c3)ncnc2[nH]1 | 0.5 to 1000 nM | 1 to 100 nM | 100 to 1000 nM | 
CN(C)C=Nc1ccc(-c2cc3c(Nc4cccc(Cl)c4)ncnc3[nH]2)cc1 | 0.5 to 1000 nM | 1 to 100 nM | 100 to 1000 nM | 
COc1cc(-c2cc3c(Nc4cccc(C)c4)ncnc3[nH]2)ccc1OCc1ccccc1 | 0.5 to 1000 nM | 1 to 100 nM | 100 to 1000 nM | 
CC(C)S(=O)(=O)Nc1cccc(-c2cc3c(Nc4cccc(Cl)c4)ncnc3[nH]2)c1 | 0.5 to 1000 nM | 1 to 100 nM | 100 to 1000 nM | 
COc1ccc(-c2csc(-c3cc4c(Nc5cccc(Cl)c5)ncnc4[nH]3)n2)cc1 | 0.5 to 1000 nM | 1 to 100 nM | 100 to 1000 nM | 
CCNC(=O)Nc1ccc(-c2cc3c(N[C@H](C)c4ccccc4)ncnc3[nH]2)cc1 | 0.5 to 1000 nM | 1 to 100 nM | 100 to 1000 nM | 
CNC(=S)Nc1ccc(-c2cc3c(N[C@H](C)c4ccccc4)ncnc3[nH]2)cc1 | 0.5 to 1000 nM | 1 to 100 nM | 100 to 1000 nM | 
